According to publication PMC8308585, “Design and Synthesis of Novel Thiazolo[5,4-d]pyrimidine Derivatives with High Affinity for Both the Adenosine A1 and A2A Receptors, and Efficacy in Animal Models of Depression” (Pharmaceuticals, 2021):
Read-outs that look alike come from different tables or passages of the source.

Columns and labels:
human A1 AR = molecular target: T1, human A1 AR (Homo sapiens, UniProt P30542); test: Radioligand binding, displacement of [3H]-CCPA at hA1 AR in CHO cells; details: displacement of specific [3H]-CCPA binding, n = 3–6, mean ± SEM
T1 construct: expressed in transfected cells; host or cells: CHO cells
T1 sequence (P30542 1-326): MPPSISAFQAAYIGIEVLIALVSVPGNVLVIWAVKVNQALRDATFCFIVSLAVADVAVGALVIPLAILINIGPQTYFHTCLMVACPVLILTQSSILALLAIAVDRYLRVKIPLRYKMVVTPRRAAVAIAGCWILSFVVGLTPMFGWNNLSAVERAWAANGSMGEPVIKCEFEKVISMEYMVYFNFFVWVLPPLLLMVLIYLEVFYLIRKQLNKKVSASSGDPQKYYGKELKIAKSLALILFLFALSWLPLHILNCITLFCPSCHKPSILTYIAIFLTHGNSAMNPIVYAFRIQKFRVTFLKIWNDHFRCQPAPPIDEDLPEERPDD
Protocol: (§2) CHO cells, stably expressing hARs, were grown adherently and maintained in Dulbecco’s modified Eagle’s medium (DMEM) with nutrient mixture F12 supplemented with 10% fetal bovine serum (FBS), penicillin (100 µg/mL), streptomycin (100 µg/mL), sodium pyruvate (1 mM), and geneticin (0.1 mg/mL).
(§3) Briefly, cells were homogenized in cold lysis buffer (5 mM Tris HCl, 2 mM EDTA, pH 7.4), centrifuged at low speed spin for 10 min, and subsequently, the supernatant was spun at 37,000 rpm. Membrane pellet was resuspended in the specific buffer and stored at −80 °C.

human A2A AR = molecular target: T2, human A2A AR (Homo sapiens, UniProt P29274); test: Radioligand binding, displacement of [3H]-NECA at hA2A AR in CHO cells;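 also: competition binding on membranes from CHO cells stably transfected with human A2A receptor, binding curves fitted by nonlinear regression in GraphPad Prism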
T2 construct: expressed in transfected cells; host or cells: CHO cells
T2 sequence (P29274 whole entry): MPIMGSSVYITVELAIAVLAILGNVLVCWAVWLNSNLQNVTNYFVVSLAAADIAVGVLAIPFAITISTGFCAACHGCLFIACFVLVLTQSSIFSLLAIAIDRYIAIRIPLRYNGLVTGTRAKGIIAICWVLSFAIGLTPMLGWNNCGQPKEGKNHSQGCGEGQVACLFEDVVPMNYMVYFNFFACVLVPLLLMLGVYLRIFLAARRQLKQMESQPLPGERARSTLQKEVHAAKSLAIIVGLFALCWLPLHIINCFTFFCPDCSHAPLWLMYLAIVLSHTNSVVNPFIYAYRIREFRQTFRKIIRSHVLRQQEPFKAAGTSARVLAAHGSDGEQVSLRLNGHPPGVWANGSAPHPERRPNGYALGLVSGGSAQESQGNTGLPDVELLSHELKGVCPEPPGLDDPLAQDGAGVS
Protocol: as §2, §3

hA3 AR = molecular target: T3, hA3 AR (Homo sapiens, UniProt P0DMS8); test: Radioligand binding, displacement of [3H]-HEMADO at hA3 AR in CHO cells; details: displacement of specific [3H]-HEMADO binding, mean ± SEM
T3 construct: expressed in transfected cells; host or cells: CHO cells
T3 sequence (P0DMS8 1-318): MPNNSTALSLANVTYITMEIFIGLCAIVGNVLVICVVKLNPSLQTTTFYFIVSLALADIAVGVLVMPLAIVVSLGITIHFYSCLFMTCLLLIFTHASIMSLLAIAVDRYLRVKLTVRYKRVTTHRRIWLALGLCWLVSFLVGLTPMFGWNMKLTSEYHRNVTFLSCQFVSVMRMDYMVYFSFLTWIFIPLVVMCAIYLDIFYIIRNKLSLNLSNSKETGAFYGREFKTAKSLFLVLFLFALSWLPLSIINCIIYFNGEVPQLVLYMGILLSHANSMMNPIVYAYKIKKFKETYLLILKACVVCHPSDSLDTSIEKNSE
Protocol: as §2, §3

hA2B AR = molecular target: T4, hA2B AR (Homo sapiens, UniProt P29275); test: Inhibition of NECA-stimulated adenylyl cyclase activity (cAMP) in CHO cells expressing hA2B AR; format: cell-based; details: mean ± SEM
T4 construct: expressed in transfected cells; host or cells: CHO cells
T4 sequence (P29275 1-332): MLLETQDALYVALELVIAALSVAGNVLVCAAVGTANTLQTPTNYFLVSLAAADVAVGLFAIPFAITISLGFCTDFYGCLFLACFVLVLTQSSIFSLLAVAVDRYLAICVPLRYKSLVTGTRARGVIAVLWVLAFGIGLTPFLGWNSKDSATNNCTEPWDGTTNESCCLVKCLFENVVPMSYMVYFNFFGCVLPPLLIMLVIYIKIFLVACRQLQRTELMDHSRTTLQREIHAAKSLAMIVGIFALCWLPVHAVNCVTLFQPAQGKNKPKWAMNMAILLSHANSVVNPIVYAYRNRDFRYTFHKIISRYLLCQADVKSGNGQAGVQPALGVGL
Protocol: Compounds 1–19 were evaluated for their binding affinity at hA1, hA2A, and hA3 ARs, stably transfected in Chinese hamster ovary (CHO) cells. […].
The binding affinity of the novel compounds was evaluated using radioligand competition experiments in CHO cells stably transfected with hA1 AR, hA2A AR, and hA3 AR subtypes. […]; The potency at hA2B AR, expressed on CHO cells, was determined by inhibition of NECA-stimulated adenylyl cyclase activity. […]
(§1) Binding data and concentration–response curves were fitted by a nonlinear regression with the Prism program (GraphPAD Prism 7 Software, San Diego, CA, USA). Each concentration was tested 3–5 times in duplicate and the Ki or IC50 (the concentration of antagonists that produces 50% inhibition of the agonist effect) values are given as the mean ± standard error (S.E.).

hA2A AR = molecular target: T5, hA2A AR (Homo sapiens, UniProt P29274); test: Inhibition of NECA-induced increase of cAMP in CHO cells expressing hA2A AR (GloSensor cAMP assay); format: cell-based; details: inhibition of NECA-stimulated adenylyl cyclase activity, mean ± standard error
T5 construct: expressed in transfected cells; host or cells: CHO cells
T5 sequence (P29274 whole entry): as the sequence (P29274 whole entry) above
Protocol: Compound 18 was also tested to evaluate its antagonist behavior at the hA1 AR by assessing its ability to counteract NECA-induced decrease of cAMP accumulation.
The intrinsic activity of understudy compounds was evaluated through the GloSensor cAMP assay, as described previously. Briefly, cells stably expressing the hA1, hA2A, and hA2B ARs and the biosensor were incubated for 2 h at rt in equilibration medium containing 3% v/v GloSensor cAMP reagent stock solution, 10% FBS, and 87% CO2 independent medium. Afterward, cells were dispensed in the wells of a 384-well plate and the reference agonist NECA or the compounds, at different concentrations, were tested. The antagonist profile of compounds was evaluated by assessing their ability to counteract NECA-induced increase (A2A and A2B ARs) or decrease (A1 AR) of cAMP accumulation. Responses were expressed as percentage of the maximal relative luminescence units (RLU).
as §1

[1] = displacement of specific [3H]-NECA binding, CHO cells, mean ± SEM, read-out: hA2A Ki
[2] = hA2A AR, as listed in Table 3, read-out: pKi A2A (converted)

Row | Compound | Ki (human A1 AR) | Ki (human A2A AR; [1]) | Ki (hA3 AR) | IC50 (hA2B AR) | Ki (human A2A AR; [2]) | IC50 (hA2A AR)
1 | Cc1ccc(-c2nc(N)c3nc(Cc4ccccc4)sc3n2)o1 [compound 5, 2-Benzyl-5-(5-methylfuran-2-yl)thiazolo[5,4-d]pyrimidin-7-amine] | 6.8 ± 1.2 nM | 0.8 ± 0.04 nM | 18.8 ± 1.9 nM | 1100 ± 228 nM | 0.794 nM | 88 ± 21 nM
2 | N#Cc1cccc(-c2nc(N)c3nc(Cc4ccccc4Cl)sc3n2)c1 [compound 7, 3-(7-Amino-2-(2-chlorobenzyl)thiazolo[5,4-d]pyrimidin-5-yl)benzonitrile] | 72.8 ± 15 nM | 6.3 ± 0.18 nM | 295.1 ± 0.6 nM | 6785 ± 62 nM | – | –
3 | Nc1nc(-c2ccco2)nc2sc(Cc3ccccc3)nc12 [compound 4, 2-Benzyl-5-(furan-2-yl)thiazolo[5,4-d]pyrimidin-7-amine] | 15.5 ± 3.6 nM | 1.1 ± 0.2 nM | 65.4 ± 12 nM | 794 ± 196 nM | 1.1 nM | –
4 | N#Cc1cccc(-c2nc(N)c3nc(Cc4ccccc4F)sc3n2)c1 [compound 16, 3-(7-Amino-2-(2-fluorobenzyl)thiazolo[5,4-d]pyrimidin-5-yl)benzonitrile] | 21.5 ± 5.1 nM | 1.4 ± 0.3 nM | 95.5 ± 1.5 nM | 1510 ± 121 nM | – | –
5 | N#Cc1cccc(-c2nc(N)c3nc(Cc4ccccc4)sc3n2)c1 [compound 2, 3-(7-Amino-2-benzylthiazolo[5,4-d]pyrimidin-5-yl)benzonitrile] | 51.7 ± 11.7 nM | 4.6 ± 0.9 nM | 76 ± 0.9 nM | > 30000 nM | – | –
6 | Nc1nc(-c2ccccc2)nc2sc(Cc3ccccc3F)nc12 [compound 15, 2-(2-Fluorobenzyl)-5-phenylthiazolo[5,4-d]pyrimidin-7-amine] | 1.9 ± 0.05 nM | 1.8 ± 0.6 nM | 72.1 ± 5.3 nM | > 30000 nM | 1.78 nM | –
7 | Cc1ccc(-c2nc(N)c3nc(Cc4ccccc4F)sc3n2)o1 [compound 19, 2-(2-Fluorobenzyl)-5-(5-methylfuran-2-yl)thiazolo[5,4-d]pyrimidin-7-amine] | 5.7 ± 0.2 nM | 0.26 ± 0.01 nM | 50.2 ± 9.2 nM | 1690 ± 228 nM | 0.257 nM | 51 ± 12 nM
8 | COc1ccccc1Cc1nc2c(N)nc(-c3cccc(O)c3)nc2s1 [compound 12, 3-(7-Amino-2-(2-methoxybenzyl)thiazolo[5,4-d]pyrimidin-5-yl)phenol] | 10.2 ± 0.3 nM | 1.9 ± 0.4 nM | 79.6 ± 2.3 nM | 7420 ± 876 nM | – | –
9 | COc1ccccc1Cc1nc2c(N)nc(-c3ccccc3)nc2s1 [compound 10, 2-(2-Methoxybenzyl)-5-phenylthiazolo[5,4-d]pyrimidin-7-amine] | 4.5 ± 0.8 nM | 0.7 ± 0.1 nM | 37.4 ± 1 nM | > 30000 nM | – | 125 ± 33 nM

Continued by falling Ki (human A1 AR), values first:

Row | Ki (human A1 AR) | Ki (human A2A AR; [1]) | Ki (hA3 AR) | IC50 (hA2B AR) | Ki (human A2A AR; [2]) | IC50 (hA2A AR) | Compound
10 | 28.4 ± 4 nM | 2.4 ± 0.09 nM | 54.2 ± 1.2 nM | 1540 ± 35 nM | – | – | COc1ccccc1Cc1nc2c(N)nc(-c3cccc(C#N)c3)nc2s1 [compound 11, 3-(7-Amino-2-(2-methoxybenzyl)thiazolo[5,4-d]pyrimidin-5-yl)benzonitrile]
11 | 20 ± 4.3 nM | 2.9 ± 0.04 nM | 26.6 ± 6 nM | > 30000 nM | 2.82 nM | – | Nc1nc(-c2ccccc2)nc2sc(Cc3ccccc3)nc12 [compound 1, 2-Benzyl-5-phenylthiazolo[5,4-d]pyrimidin-7-amine]
12 | 15.7 ± 3.4 nM | 7.3 ± 1 nM | 104 ± 21.1 nM | > 30000 nM | – | – | Nc1nc(-c2cccc(O)c2)nc2sc(Cc3ccccc3)nc12 [compound 3, 3-(7-Amino-2-benzylthiazolo[5,4-d]pyrimidin-5-yl)phenol]
13 | 11.5 ± 2.8 nM | 2 ± 0.6 nM | 18.2 ± 5 nM | 2420 ± 545 nM | – | – | COc1ccccc1Cc1nc2c(N)nc(-c3ccc(C)o3)nc2s1 [compound 14, 2-(2-Methoxybenzyl)-5-(5-methylfuran-2-yl)thiazolo[5,4-d]pyrimidin-7-amine]
14 | 3.8 ± 0.6 nM | 0.2 ± 0.03 nM | 4786 ± 5.1 nM | 1890 ± 175 nM | 0.2 nM | 39 ± 9 nM | Nc1nc(-c2ccco2)nc2sc(Cc3ccccc3Cl)nc12 [compound 8, 2-(2-Chlorobenzyl)-5-(furan-2-yl)thiazolo[5,4-d]pyrimidin-7-amine]
15 | 2.8 ± 0.05 nM | 0.4 ± 0.04 nM | 143 ± 0.2 nM | > 30000 nM | 0.398 nM | – | Nc1nc(-c2ccccc2)nc2sc(Cc3ccccc3Cl)nc12 [compound 6, 2-(2-Chlorobenzyl)-5-phenylthiazolo[5,4-d]pyrimidin-7-amine]
16 | 2.4 ± 0.1 nM | 0.2 ± 0.03 nM | 48.6 ± 2.4 nM | 1540 ± 35 nM | – | 35 ± 8.5 nM | COc1ccccc1Cc1nc2c(N)nc(-c3ccco3)nc2s1 [compound 13, 5-(Furan-2-yl)-2-(2-methoxybenzyl)thiazolo[5,4-d]pyrimidin-7-amine]
17 | 0.5 ± 0.1 nM | 0.07 ± 0.006 nM | 8.5 ± 1.6 nM | 8850 ± 1450 nM | 0.0708 nM | 7.7 ± 1.3 nM | Cc1ccc(-c2nc(N)c3nc(Cc4ccccc4Cl)sc3n2)o1 [compound 9, 2-(2-Chlorobenzyl)-5-(5-methylfuran-2-yl)thiazolo[5,4-d]pyrimidin-7-amine]
18 | 0.5 ± 0.1 nM | – | 456 ± 15 nM | 3240 ± 136 nM | – | – | Nc1nc(-c2cccc(O)c2)nc2sc(Cc3ccccc3F)nc12 [compound 17, 3-(7-Amino-2-(2-fluorobenzyl)thiazolo[5,4-d]pyrimidin-5-yl)phenol]
